The values below come from ChEMBL document CHEMBL1152828, “Rare dipeptide and urea derivatives from roots of Moringa oleifera as potential anti-inflammatory and antinociceptive agents” (Eur J Med Chem, 2009).

Assay [1] concerns Blood. The experiment in a line: Inhibition of LPS-induced IL2 production in rat whole blood at 12.5 to 50 uM by ELISA. The assay is classed as functional, tissue-based. For orientation: In an ELISA, binding on a coated surface is turned into a signal by an enzyme label.
The test system of the next assay is Mus musculus. The experiment in a line: Analgesic activity in intracerebrally dosed mouse assessed as increase in time course of latency for thermal stimulation by hotplate test. The assay is classed as functional, organism-based.
Assay [2] addresses Transient receptor potential cation channel subfamily V member 1 (Rattus norvegicus, UniProt O35433). The experiment in a line: Antagonist activity at TRPV1 in rat DRG neuron assessed as inhibition of calcium uptake. It counts as functional.
Assay [3] has as its system Blood. Nature of the assay: Inhibition of LPS-induced TNFalpha production in rat whole blood at 12.5 to 50 uM by ELISA. It counts as functional, tissue-based.
The subject of assay [4] is Blood. Nature of the assay: Inhibition of LPS-induced IL6 production in rat whole blood at 12.5 to 50 uM by ELISA. It counts as functional, tissue-based.

The source made the active and inactive calls. The rule behind the calls is not given here.

Transient receptor potential cation channel subfamily V member 1, sequence (O35433 whole entry): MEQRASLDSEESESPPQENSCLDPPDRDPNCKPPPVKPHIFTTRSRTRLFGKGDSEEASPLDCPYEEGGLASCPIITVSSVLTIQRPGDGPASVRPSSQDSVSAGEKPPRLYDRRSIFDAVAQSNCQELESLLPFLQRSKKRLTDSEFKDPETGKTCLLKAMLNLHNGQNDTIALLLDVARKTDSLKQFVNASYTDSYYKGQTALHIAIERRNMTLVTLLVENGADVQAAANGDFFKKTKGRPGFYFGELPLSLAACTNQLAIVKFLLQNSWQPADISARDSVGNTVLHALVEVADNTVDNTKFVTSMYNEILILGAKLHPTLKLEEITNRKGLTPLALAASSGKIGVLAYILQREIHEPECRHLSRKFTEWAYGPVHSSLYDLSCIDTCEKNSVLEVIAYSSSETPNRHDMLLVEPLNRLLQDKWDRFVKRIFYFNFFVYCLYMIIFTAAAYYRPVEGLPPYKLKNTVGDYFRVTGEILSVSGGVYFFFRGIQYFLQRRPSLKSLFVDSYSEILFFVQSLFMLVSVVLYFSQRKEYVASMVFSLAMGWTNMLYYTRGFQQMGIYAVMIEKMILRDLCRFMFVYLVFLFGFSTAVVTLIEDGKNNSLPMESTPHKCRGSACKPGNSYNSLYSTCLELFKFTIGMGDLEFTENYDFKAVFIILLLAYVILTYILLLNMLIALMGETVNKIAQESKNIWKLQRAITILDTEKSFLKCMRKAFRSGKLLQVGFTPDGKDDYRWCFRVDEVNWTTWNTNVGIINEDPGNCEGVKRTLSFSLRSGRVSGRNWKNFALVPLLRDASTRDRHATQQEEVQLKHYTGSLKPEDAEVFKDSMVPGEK

For orientation: IC50 means the concentration that inhibits the measured activity by half. For the compound `O=C(NCc1ccccc1)NCc1ccccc1`, the result in the assay with Blood [1] was Active. In the assay on Mus musculus, the Activity entry is “Dose-dependent effect”. For the same compound, the IC50 in assay [2] was determined as 0.01 µM.

Take `CC(=O)OCC(Cc1ccccc1)NC(=O)C(Cc1ccccc1)NC(=O)c1ccccc1` (configuration not stated): the result with Blood [3], in the assay on Blood [1] and in the assay with Blood [4] was Active. In addition, in the assay with Mus musculus, the Activity result is “Dose-dependent effect”.
